According to ChEMBL document CHEMBL4680224, “Discovery of pyridine tetrahydroisoquinoline thiohydantoin derivatives with low blood-brain barrier penetration as the androgen receptor antagonists” (Eur J Med Chem, 2020):
Blank lines part the entries; values can stand above or below the molecule they belong to. The source made the active and inactive calls. The rule behind the calls is not given here.

What was measured:
[1] = Stability in human liver microsomes assessed as parent compound remaining at 10 uM; format: ADME, Microsome; details: read-out: Stabilty
LNCaP [2] = test: Antitumour activity against human LNCaP cells xenografted in BALB/c nude mouse assessed as decrease in PSA level at 45 mg/kg, po administered daily for 21 days by ELISA relative to control; format: functional; design: scale not given: the % may be the effect or the level left; details: time 21 day
LNCaP [3] = test: Antiproliferative activity against human LNCaP cells assessed as reduction in cel viability after 72 hrs by MTT assay; format: functional, cell-based
[4] = Antagonist activity at GABAA receptor (unknown origin) by radioligand binding assay
[5] = Half life in human liver microsomes at 10 uM; format: ADME, Microsome
LNCaP [6] = test: Antitumour activity against human LNCaP cells xenografted in BALB/c nude mouse assessed as reduction in tumour weight at 45 mg/kg, po administered daily for 21 days relative to control; format: functional; details: time 21 day
DU-145 = test: Antiproliferative activity against human DU-145 cells assessed as reduction in cel viability after 72 hrs by MTT assay; format: functional, cell-based; details: DU-145, 72 h
LNCaP [7] = test: Antitumour activity against human LNCaP cells xenografted in po dosed BALB/c nude mouse assessed as reduction in tumour size administered daily for 21 days; format: functional, organism-based; details: dose 15-45 mg/kg, time 21.0 day
[8] = Toxicity in ICR mouse assessed as pathological changes in prostate […] at 100 to 1000 mg/kg, po administered for 14 days by H and E staining based optical microscopic method; format: organism-based; details: in vivo, 336 h, dose 100-1000 mg/kg, time 14 day
[9] = Toxicity in BALB/c mouse xenografted with human LNCaP cells assessed as pathological changes in liver at 15 to 45 mg/kg, po administered daily for 21 days H and E staining based optical microscopic method; format: organism-based; details: in vivo, 504 h, dose 15-45 mg/kg, time 21 day
LNCaP [10] = test: Antitumour activity against human LNCaP cells xenografted in po dosed BALB/c nude mouse assessed as decrease in PSA level administered daily for 21 days by ELISA; format: functional, organism-based; details: dose 15-45 mg/kg, time 21.0 day
[11] = Toxicity in BALB/c mouse xenografted with LNCaP cells assessed as reduction in body weight at 15 to 45 mg/kg, po administered daily for 21 days; format: organism-based; details: in vivo, 504 h, dose 15-45 mg/kg, time 21 day
LNCaP [12] = test: Antitumour activity against human LNCaP cells xenografted in po dosed BALB/c nude mouse assessed as reduction in tumour weight administered daily for 21 days; format: functional, organism-based; details: dose 15-45 mg/kg, time 21.0 day
LNCaP [13] = test: Antitumour activity against human LNCaP cells xenografted in BALB/c nude mouse assessed as increase in karyorrhexis at 15 to 45 mg/kg, po administered daily for 21 days by H and E staining based optical microscopic method; format: functional, organism-based; details: dose 15-45 mg/kg, time 21.0 day
[14] = Toxicity in BALB/c mouse xenografted with human LNCaP cells assessed as pathological changes in kidney at 15 to 45 mg/kg, po administered daily for 21 days H and E staining based optical microscopic method; format: organism-based; details: in vivo, 504 h, dose 15-45 mg/kg, time 21 day
LNCaP [15] = test: Antitumour activity against human LNCaP cells xenografted in BALB/c nude mouse assessed as increase in necrosis at 15 to 45 mg/kg, po administered daily for 21 days by H and E staining based optical microscopic method; format: functional, organism-based; details: dose 15-45 mg/kg, time 21.0 day
LNCaP [16] = test: Antitumour activity against human LNCaP cells xenografted in BALB/c nude mouse assessed as reduction in tumour weight at 15 mg/kg, po administered daily for 21 days relative to control; format: functional; details: 504 h, time 21 day, read-out: TGI
[17] = Toxicity in ICR mouse assessed as pathological changes in seminal vesicle at 100 to 1000 mg/kg, po administered for 14 days by H and E staining based optical microscopic method; format: organism-based; details: in vivo, 336 h, dose 100-1000 mg/kg, time 14 day
[18] = Toxicity in BALB/c mouse xenografted with human LNCaP cells assessed as pathological changes in spleen at 15 to 45 mg/kg, po administered daily for 21 days H and E staining based optical microscopic method; format: organism-based; details: in vivo, 504 h, dose 15-45 mg/kg, time 21 day
[19] = Toxicity in BALB/c mouse xenografted with human LNCaP cells assessed as pathological changes in heart at 15 to 45 mg/kg, po administered daily for 21 days H and E staining based optical microscopic method; format: organism-based; details: in vivo, 504 h, dose 15-45 mg/kg, time 21 day
LNCaP [20] = test: Antitumour activity against human LNCaP cells xenografted in po dosed BALB/c nude mouse assessed as reduction in tumour volume administered daily for 21 days; format: functional, organism-based; details: dose 15-45 mg/kg, time 21.0 day
LNCaP [21] = test: Antitumour activity against human LNCaP cells xenografted in BALB/c nude mouse assessed as reduction in tumour weight at 30 mg/kg, po administered daily for 21 days relative to control; format: functional; details: 504 h, time 21 day, read-out: TGI
Androgen receptor = biological target: T1, Androgen receptor (Homo sapiens, UniProt P10275); test: Antagonist activity at Androgen receptor (unknown origin) expressed in COS7 cells by dual luciferase reporter gene assay relative to control; format: cell-based
T1 sequence (P10275 whole entry): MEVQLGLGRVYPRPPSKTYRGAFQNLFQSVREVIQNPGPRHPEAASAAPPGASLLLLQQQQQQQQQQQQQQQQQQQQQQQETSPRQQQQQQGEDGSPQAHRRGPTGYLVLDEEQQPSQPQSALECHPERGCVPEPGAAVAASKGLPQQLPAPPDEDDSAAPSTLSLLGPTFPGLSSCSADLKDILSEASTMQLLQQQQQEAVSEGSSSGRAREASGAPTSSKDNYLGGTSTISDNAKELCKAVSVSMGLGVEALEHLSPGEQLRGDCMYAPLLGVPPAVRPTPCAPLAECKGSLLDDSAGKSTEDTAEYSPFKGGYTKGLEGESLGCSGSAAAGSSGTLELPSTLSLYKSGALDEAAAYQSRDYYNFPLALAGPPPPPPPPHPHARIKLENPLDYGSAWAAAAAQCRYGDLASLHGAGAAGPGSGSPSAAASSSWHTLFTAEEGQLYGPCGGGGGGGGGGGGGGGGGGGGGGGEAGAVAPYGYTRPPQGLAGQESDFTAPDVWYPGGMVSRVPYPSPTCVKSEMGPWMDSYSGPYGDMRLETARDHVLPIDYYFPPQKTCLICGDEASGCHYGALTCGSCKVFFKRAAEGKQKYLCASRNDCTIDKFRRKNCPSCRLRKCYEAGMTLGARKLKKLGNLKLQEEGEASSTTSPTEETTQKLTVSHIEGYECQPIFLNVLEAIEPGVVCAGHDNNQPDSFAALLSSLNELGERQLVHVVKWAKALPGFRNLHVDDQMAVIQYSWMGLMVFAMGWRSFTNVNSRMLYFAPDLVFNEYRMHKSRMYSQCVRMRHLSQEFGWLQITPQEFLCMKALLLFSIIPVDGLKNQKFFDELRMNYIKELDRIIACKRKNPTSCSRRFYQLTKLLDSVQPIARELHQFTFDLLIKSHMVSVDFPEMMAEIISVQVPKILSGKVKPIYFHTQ

[22] = Toxicity in ICR mouse assessed as reduction in body weight at 100 to 1000 mg/kg, po administered for 14 days; format: organism-based; details: in vivo, 336 h, dose 100-1000 mg/kg, time 14 day
in vitro = details: human, liver microsomes
Description: Intrinsic clearance in human liver microsomes at 10 uM

[23] = Toxicity in BALB/c mouse xenografted with human LNCaP cells assessed as pathological changes in lung at 15 to 45 mg/kg, po administered daily for 21 days H and E staining based optical microscopic method; format: organism-based; details: in vivo, 504 h, dose 15-45 mg/kg, time 21 day
LNCaP [24] = test: Antitumour activity against human LNCaP cells xenografted in BALB/c nude mouse assessed as decrease in PSA level at 30 mg/kg, po administered daily for 21 days by ELISA relative to control; format: functional; design: scale not given: the % may be the effect or the level left; details: time 21 day
LNCaP [25] = test: Antitumour activity against human LNCaP cells xenografted in BALB/c nude mouse assessed as decrease in PSA level at 15 mg/kg, po administered daily for 21 days by ELISA relative to control; format: functional; design: scale not given: the % may be the effect or the level left; details: time 21 day

- remaining at 10 µM [1]: 90.3%
- IC50 (LNCaP [3]): 16.5 µM
- IC50 [4]: 2.7 µM
- half-life at 10 µM [5]: 6.69 h
- IC50 (DU-145): 49.3 µM
Compound: CNC(=O)c1ccc(N2C(=S)N(c3ccc(C#N)c(C(F)(F)F)c3)C(=O)C2(C)C)cc1F [ENZALUTAMIDE]
- Activity (LNCaP [2]): 57%
- TGI (LNCaP [6]): 68%

- remaining at 10 µM [1]: 87.1%
- IC50 (LNCaP [3]): 14.8 µM
- IC50 (Androgen receptor): 6.17 µM
- half-life at 10 µM [5]: 4.36 h
- CLint scaled at 10 µM (in vitro): 7.86 mL/min/kg
- IC50 (DU-145): 94.3 µM
Compound: CCOC(=O)Nc1cc2c(cc1F)CC1C(=O)N(c3cnc(C#N)c(C(F)(F)F)c3)C(=S)N1C2 (centres undefined)
- Activity (LNCaP [7]): Dose-dependent effect
- Activity [8]: Non-Toxic
- Activity [9]: Non-Toxic
- Activity (LNCaP [10]): Dose-dependent effect
- Activity [11]: Non-Toxic
- Activity (LNCaP [2]): 73%
- Activity (LNCaP [12]): Dose-dependent effect
- Activity (LNCaP [13]): Active
- Activity [14]: Non-Toxic
- Activity (LNCaP [15]): Active
- inhibition in vivo at 15 mg/kg (LNCaP [16]): 12%
- Activity [17]: Non-Toxic
- Activity [18]: Non-Toxic
- Activity [19]: Non-Toxic
- Activity (LNCaP [20]): Dose-dependent effect
- inhibition in vivo at 30 mg/kg (LNCaP [21]): 39%
- Activity [22]: Non-Toxic
- inhibition in vivo at 45 mg/kg (LNCaP [6]; Mus musculus, LNCaP, po, 504 h, read-out: TGI): 79%
- Activity [23]: Non-Toxic
- Activity (LNCaP [24]): 43%
- Activity (LNCaP [25]): 24%
